Experimental data taken from patent publication US20120122860A1, “SOLID FORMS OF SULFONAMIDES AND AMINO ACIDS” (Plexxikon, Inc., priority 2009, published 2012).

Experiments:
B-Raf = B-Raf (Homo sapiens, UniProt P15056); experiment: Kinase activity assay, B-Raf; type: biochemical; details: read-out: activity toward kinase B-Raf, IC50
Src = Src (Homo sapiens, UniProt P12931); experiment: Kinase activity assay, Src
C-Raf = C-Raf (Homo sapiens, UniProt P04049); experiment: Kinase activity assay, C-Raf
Chain of C-Raf (P04049 whole entry): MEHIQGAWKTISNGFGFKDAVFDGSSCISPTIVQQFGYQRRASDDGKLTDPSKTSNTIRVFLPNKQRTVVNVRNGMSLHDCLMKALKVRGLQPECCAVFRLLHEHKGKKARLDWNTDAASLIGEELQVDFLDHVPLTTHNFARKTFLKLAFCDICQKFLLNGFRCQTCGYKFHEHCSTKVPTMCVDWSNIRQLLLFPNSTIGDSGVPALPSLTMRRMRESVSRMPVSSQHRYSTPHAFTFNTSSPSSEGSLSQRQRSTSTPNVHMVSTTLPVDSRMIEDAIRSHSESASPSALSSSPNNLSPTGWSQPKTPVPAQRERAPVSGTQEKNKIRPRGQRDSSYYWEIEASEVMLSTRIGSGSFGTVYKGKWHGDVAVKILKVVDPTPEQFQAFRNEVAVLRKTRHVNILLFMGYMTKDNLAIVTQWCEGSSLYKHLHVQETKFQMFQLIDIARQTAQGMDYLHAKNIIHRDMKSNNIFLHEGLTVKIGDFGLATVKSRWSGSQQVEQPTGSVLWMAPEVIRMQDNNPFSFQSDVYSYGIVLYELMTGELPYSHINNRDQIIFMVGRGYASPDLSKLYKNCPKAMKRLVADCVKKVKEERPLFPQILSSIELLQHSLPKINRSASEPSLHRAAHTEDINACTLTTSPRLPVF

Kit = Kit (Homo sapiens, UniProt P10721); experiment: Kinase activity assay, Kit
Chain of Kit (P10721 26-976): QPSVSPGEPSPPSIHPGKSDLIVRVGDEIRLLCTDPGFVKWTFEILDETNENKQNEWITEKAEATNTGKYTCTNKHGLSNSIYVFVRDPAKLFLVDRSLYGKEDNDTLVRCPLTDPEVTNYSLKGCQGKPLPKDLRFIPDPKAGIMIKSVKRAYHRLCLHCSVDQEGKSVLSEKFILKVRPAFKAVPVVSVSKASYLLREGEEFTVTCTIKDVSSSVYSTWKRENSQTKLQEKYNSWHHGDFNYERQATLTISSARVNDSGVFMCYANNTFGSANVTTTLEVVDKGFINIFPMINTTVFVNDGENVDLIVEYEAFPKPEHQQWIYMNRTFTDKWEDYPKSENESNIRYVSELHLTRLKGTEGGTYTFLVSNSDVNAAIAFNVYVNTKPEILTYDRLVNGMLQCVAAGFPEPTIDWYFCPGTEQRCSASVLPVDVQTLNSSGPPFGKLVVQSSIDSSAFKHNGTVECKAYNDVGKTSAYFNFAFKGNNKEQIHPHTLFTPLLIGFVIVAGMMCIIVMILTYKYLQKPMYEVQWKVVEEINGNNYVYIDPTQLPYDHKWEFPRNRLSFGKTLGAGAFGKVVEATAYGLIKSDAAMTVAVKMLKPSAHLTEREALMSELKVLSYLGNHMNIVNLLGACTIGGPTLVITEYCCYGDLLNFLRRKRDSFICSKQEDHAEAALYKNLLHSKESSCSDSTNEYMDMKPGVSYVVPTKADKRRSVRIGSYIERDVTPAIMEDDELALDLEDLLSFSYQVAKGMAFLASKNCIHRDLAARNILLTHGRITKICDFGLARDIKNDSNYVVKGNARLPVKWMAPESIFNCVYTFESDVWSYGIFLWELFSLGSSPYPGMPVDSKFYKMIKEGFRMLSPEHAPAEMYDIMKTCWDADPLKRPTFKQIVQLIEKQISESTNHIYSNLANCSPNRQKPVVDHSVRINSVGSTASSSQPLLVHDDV

Kdr = Kdr (Homo sapiens, UniProt P35968); experiment: Kinase activity assay, Kdr
Chain of Kdr (P35968 20-1356): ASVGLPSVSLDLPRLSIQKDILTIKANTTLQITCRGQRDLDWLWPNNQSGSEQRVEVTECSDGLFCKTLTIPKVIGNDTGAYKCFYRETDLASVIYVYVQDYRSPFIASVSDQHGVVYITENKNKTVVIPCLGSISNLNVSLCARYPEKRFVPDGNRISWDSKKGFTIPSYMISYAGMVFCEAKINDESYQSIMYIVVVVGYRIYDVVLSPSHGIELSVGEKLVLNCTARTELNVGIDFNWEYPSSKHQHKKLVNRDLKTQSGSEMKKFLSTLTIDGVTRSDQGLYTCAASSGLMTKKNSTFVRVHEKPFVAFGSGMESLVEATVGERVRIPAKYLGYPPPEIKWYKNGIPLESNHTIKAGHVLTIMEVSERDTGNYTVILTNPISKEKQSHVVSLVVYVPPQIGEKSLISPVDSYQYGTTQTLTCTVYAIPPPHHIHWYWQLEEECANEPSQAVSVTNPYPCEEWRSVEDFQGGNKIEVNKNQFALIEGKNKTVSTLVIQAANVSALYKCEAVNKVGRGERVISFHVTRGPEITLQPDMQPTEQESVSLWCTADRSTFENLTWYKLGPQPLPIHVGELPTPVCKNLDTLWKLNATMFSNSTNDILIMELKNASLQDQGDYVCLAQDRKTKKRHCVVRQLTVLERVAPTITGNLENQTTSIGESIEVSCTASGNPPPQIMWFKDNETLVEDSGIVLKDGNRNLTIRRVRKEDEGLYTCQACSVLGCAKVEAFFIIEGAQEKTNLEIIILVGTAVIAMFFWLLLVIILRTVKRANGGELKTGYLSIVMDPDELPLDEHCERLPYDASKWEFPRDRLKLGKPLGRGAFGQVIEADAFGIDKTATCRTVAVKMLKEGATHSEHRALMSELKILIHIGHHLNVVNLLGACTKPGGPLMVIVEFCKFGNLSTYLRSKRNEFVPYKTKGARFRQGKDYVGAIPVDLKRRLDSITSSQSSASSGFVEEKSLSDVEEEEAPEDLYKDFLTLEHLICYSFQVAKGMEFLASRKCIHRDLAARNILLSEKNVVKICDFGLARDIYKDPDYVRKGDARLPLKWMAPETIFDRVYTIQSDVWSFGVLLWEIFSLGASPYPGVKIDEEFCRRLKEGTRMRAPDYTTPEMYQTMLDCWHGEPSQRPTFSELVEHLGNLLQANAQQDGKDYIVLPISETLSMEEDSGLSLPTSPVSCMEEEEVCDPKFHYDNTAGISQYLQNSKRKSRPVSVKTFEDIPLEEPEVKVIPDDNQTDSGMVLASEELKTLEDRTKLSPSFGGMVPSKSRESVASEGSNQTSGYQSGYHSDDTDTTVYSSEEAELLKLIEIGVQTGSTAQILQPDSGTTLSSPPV

Fms = Fms (Homo sapiens, UniProt P07333); experiment: Kinase activity assay, Fms
B-Raf V600E = B-Raf V600E (Homo sapiens, UniProt P15056, V600E); experiment: Kinase activity assay, B-Raf V600E; type: biochemical; details: read-out: activity toward kinase B-Raf V600E, IC50
Chain of B-Raf V600E (P15056 whole entry V600E): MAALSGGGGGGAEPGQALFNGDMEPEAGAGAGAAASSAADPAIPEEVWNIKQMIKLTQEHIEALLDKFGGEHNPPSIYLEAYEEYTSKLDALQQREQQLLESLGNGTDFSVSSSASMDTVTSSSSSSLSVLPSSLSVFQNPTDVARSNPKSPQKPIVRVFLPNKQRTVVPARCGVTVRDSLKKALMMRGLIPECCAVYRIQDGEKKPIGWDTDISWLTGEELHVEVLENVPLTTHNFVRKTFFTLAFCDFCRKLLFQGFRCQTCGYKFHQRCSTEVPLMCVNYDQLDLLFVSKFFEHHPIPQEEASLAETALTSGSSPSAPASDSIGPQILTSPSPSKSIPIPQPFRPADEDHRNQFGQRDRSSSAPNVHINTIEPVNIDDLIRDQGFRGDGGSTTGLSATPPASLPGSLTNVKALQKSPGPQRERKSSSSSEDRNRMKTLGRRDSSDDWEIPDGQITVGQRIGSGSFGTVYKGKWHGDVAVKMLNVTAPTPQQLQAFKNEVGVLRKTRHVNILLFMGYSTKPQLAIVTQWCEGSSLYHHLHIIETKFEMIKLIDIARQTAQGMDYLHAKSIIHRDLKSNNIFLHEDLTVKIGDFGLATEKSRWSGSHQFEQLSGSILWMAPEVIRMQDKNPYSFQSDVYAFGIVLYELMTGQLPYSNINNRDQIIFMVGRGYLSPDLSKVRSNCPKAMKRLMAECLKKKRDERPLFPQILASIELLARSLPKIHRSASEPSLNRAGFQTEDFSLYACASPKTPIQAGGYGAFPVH

MAP4K4 = MAP4K4 (Homo sapiens, UniProt O95819); experiment: Kinase activity assay, MAP4K4
Chain of MAP4K4 (O95819 whole entry): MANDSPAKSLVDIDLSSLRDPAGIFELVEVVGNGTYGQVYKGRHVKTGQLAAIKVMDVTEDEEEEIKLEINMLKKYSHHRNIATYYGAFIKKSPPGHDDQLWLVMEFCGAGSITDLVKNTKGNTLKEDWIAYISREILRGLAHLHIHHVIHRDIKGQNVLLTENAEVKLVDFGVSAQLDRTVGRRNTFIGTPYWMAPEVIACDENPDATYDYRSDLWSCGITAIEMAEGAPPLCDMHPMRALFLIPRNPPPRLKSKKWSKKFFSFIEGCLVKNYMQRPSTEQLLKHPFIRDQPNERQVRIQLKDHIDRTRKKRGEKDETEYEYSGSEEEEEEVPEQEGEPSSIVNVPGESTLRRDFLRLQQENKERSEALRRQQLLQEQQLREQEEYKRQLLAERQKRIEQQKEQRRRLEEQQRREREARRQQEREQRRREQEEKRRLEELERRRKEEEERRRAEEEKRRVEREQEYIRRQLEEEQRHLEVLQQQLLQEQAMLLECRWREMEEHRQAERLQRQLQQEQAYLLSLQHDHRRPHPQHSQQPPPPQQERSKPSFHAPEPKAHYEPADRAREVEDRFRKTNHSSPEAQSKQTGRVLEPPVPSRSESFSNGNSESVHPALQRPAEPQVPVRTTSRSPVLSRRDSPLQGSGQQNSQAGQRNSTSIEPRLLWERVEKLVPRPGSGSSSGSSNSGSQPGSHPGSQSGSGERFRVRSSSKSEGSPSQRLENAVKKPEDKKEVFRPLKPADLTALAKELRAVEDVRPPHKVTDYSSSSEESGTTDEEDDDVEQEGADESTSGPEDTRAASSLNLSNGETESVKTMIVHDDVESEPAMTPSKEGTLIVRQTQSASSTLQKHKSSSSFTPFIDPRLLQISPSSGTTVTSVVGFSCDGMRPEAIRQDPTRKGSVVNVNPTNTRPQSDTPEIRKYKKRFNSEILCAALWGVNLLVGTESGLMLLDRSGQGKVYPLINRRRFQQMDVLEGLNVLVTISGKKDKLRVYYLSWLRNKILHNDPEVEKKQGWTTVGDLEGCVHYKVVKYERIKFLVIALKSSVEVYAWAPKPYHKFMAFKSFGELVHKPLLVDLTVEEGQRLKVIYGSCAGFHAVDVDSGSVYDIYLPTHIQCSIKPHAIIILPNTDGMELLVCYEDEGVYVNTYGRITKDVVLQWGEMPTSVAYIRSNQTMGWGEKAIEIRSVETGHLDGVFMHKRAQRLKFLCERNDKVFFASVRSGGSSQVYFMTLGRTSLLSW

Measured: IC50

Chain of B-Raf (P15056 whole entry): as the sequence (P15056 whole entry V600E) above, with E600V counted along it

Cc1cc(C)cc(S(=O)(=O)Nc2ccc(F)c(C(=O)c3c[nH]c4ncc(Cl)cc34)c2F)c1 [P-2004, N-[3-(5-Chloro-1H-pyrrolo[2,3-b]pyridine-3-carbonyl)-2,4-difluoro-phenyl]-3,5-dimethyl-benzenesulfonamide]
not listed: MAP4K4
≤ 10 µM: all other assays above

COc1ccc(S(=O)(=O)Nc2ccc(F)c(C(=O)c3c[nH]c4ncc(Cl)cc34)c2F)cc1F [P-2005, N-[3-(5-Chloro-1H-pyrrolo[2,3-b]pyridine-3-carbonyl)-2,4-difluoro-phenyl]-3-fluoro-4-methoxy-benzenesulfonamide]
not listed: MAP4K4
≤ 10 µM: all other assays above

Cc1cc(F)ccc1S(=O)(=O)Nc1ccc(F)c(C(=O)c2c[nH]c3ncc(Cl)cc23)c1F [P-2006, N-[3-(5-Chloro-1H-pyrrolo[2,3-b]pyridine-3-carbonyl)-2,4-difluoro-phenyl]-4-fluoro-2-methyl-benzenesulfonamide]
not listed: MAP4K4
≤ 10 µM: all other assays above

Cc1cnc2[nH]cc(C(=O)c3c(F)ccc(NS(=O)(=O)c4ccc(F)cc4F)c3F)c2c1 [P-2025, N-[2,4-Difluoro-3-(5-methyl-1H-pyrrolo[2,3-b]pyridine-3-carbonyl)-phenyl]-2,4-difluoro-benzenesulfonamide]
not listed: Fms
≤ 10 µM: all other assays above

O=C(c1c(F)ccc(NS(=O)(=O)c2ccc(F)cc2)c1F)c1c[nH]c2nccc(Cl)c12 [P-2026, N-[3-(4-Chloro-1H-pyrrolo[2,3-b]pyridine-3-carbonyl)-2,4-difluoro-phenyl]-4-fluoro-benzenesulfonamide]
not listed: Fms
≤ 10 µM: all other assays above

O=C(c1c(F)ccc(NS(=O)(=O)c2c(F)cccc2F)c1F)c1c[nH]c2nccc(Cl)c12 [P-2033, N-[3-(4-Chloro-1H-pyrrolo[2,3-b]pyridine-3-carbonyl)-2,4-difluoro-phenyl]-2,6-difluoro-benzenesulfonamide]
not listed: Fms
≤ 10 µM: all other assays above

O=C(c1c(F)ccc(NS(=O)(=O)c2ccc(F)cc2F)c1F)c1c[nH]c2nccc(Cl)c12 [P-2034, N-[3-(4-Chloro-1H-pyrrolo[2,3-b]pyridine-3-carbonyl)-2,4-difluoro-phenyl]-2,4-difluoro-benzenesulfonamide]
not listed: Fms
≤ 10 µM: all other assays above

O=C(c1c(F)ccc(NS(=O)(=O)c2cccnc2)c1F)c1c[nH]c2nccc(Cl)c12 [P-2074, Pyridine-3-sulfonic acid [3-(4-chloro-1H-pyrrolo[2,3-b]pyridine-3-carbonyl)-2,4-difluoro-phenyl]-amide]
≤ 10 µM: Src | MAP4K4

Cc1cnc2[nH]cc(C(=O)c3cccc(NS(=O)(=O)c4cccnc4)c3)c2c1 [P-2141, Pyridine-3-sulfonic acid [3-(5-methyl-1H-pyrrolo[2,3-b]pyridine-3-carbonyl)-phenyl]-amide]
≤ 10 µM: Kit | MAP4K4 | Kdr | Fms

O=C(c1cccc(NS(=O)(=O)c2cccnc2)c1)c1c[nH]c2ncc(F)cc12 [P-2143, Pyridine-3-sulfonic acid [3-(5-fluoro-1H-pyrrolo[2,3-b]pyridine-3-carbonyl)-phenyl]-amide]
≤ 10 µM: C-Raf | MAP4K4 | Kdr | Fms

O=C(c1cccc(NS(=O)(=O)c2cccnc2)c1)c1c[nH]c2ncc(Cl)cc12 [P-2146, Pyridine-3-sulfonic acid [3-(5-chloro-1H-pyrrolo[2,3-b]pyridine-3-carbonyl)-phenyl]-amide]
≤ 10 µM: MAP4K4 | Kdr

CCCS(=O)(=O)Nc1ccc(F)c(C(=O)c2c[nH]c3ncc(-c4ccc(F)nc4)cc23)c1F [P-2155, Propane-1-sulfonic acid {2,4-difluoro-3-[5-(6-fluoro-pyridin-3-yl)-1H-pyrrolo[2,3-b]pyridine-3-carbonyl]-phenyl}-amide]
not listed: MAP4K4
≤ 10 µM: all other assays above

CCCS(=O)(=O)Nc1ccc(F)c(C(=O)c2c[nH]c3ncc(-c4ccc(S(=O)(=O)N5CCOCC5)cc4)cc23)c1F [P-2166, Propane-1-sulfonic acid (2,4-difluoro-3-{5-[4-(morpholine-4-sulfonyl)-phenyl]-1H-pyrrolo[2,3-b]pyridine-3-carbonyl}-phenyl)-amide]
not listed: MAP4K4
≤ 10 µM: all other assays above

CCCS(=O)(=O)Nc1ccc(F)c(C(=O)c2c[nH]c3ncc(-c4ccc(S(=O)(=O)NC)cc4)cc23)c1F [P-2167, 4-{3-[2,6-Difluoro-3-(propane-1-sulfonylamino)-benzoyl]-1H-pyrrolo[2,3-b]pyridin-5-yl}-N-methyl-benzenesulfonamide]
not listed: MAP4K4
≤ 10 µM: all other assays above

CCCS(=O)(=O)Nc1ccc(F)c(C(=O)c2c[nH]c3ncc(-c4cccc(O)c4)cc23)c1F [P-2179, Propane-1-sulfonic acid {2,4-difluoro-3-[5-(3-hydroxy-phenyl)-1H-pyrrolo[2,3-b]pyridine-3-carbonyl]-phenyl}-amide]
not listed: MAP4K4
≤ 10 µM: all other assays above

CCCS(=O)(=O)Nc1ccc(F)c(C(=O)c2c[nH]c3ncc(-c4ccc(S(=O)(=O)N(C)C)cc4)cc23)c1F [P-2185, 4-{3-[2,6-Difluoro-3-(propane-1-sulfonylamino)-benzoyl]-1H-pyrrolo[2,3-b]pyridin-5-yl}-N,N-dimethyl-benzenesulfonamide]
not listed: MAP4K4
≤ 10 µM: all other assays above

CCCS(=O)(=O)Nc1ccc(F)c(C(=O)c2c[nH]c3ncc(-c4cnc(N5CCCC5)nc4)cc23)c1F [P-2219, Propane-1-sulfonic acid {2,4-difluoro-3-[5-(2-pyrrolidin-1-yl-pyrimidin-5-yl)-1H-pyrrolo[2,3-b]pyridine-3-carbonyl]-phenyl}-amide]
not listed: Kit | Fms
≤ 10 µM: all other assays above

CCCS(=O)(=O)Nc1ccc(F)c(C(=O)c2c[nH]c3ncc(-c4ccc(S(=O)(=O)C(C)C)cc4)cc23)c1F [P-2223, Propane-1-sulfonic acid (2,4-difluoro-3-{5-[4-(propane-2-sulfonyl)-phenyl]-1H-pyrrolo[2,3-b]pyridine-3-carbonyl}-phenyl)-amide]
not listed: Fms
≤ 10 µM: all other assays above

CCS(=O)(=O)Nc1ccc(F)c(C(=O)c2c[nH]c3ncc(-c4ccc(Cl)cc4)cc23)c1F [P-2269, Ethanesulfonic acid {3-[5-(4-chloro-phenyl)-1H-pyrrolo[2,3-b]pyridine-3-carbonyl]-2,4-difluoro-phenyl}-amide]
≤ 10 µM: MAP4K4 | Kdr

CCS(=O)(=O)Nc1ccc(F)c(C(=O)c2c[nH]c3nccc(OC)c23)c1F [P-2279, Ethanesulfonic acid [2,4-difluoro-3-(4-methoxy-1H-pyrrolo[2,3-b]pyridine-3-carbonyl)-phenyl]-amide]
≤ 10 µM: B-Raf | C-Raf | MAP4K4 | Kdr | B-Raf V600E

Cc1cnc2[nH]cc(C(=O)c3c(F)ccc(NS(=O)(=O)C4CCCCC4)c3F)c2c1 [P-2360, Cyclohexanesulfonic acid [2,4-difluoro-3-(5-methyl-1H-pyrrolo[2,3-b]pyridine-3-carbonyl)-phenyl]-amide]
not listed: Fms
≤ 10 µM: all other assays above

Cc1cnc2[nH]cc(C(=O)c3cccc(NS(=O)(=O)C4CCCC4)c3)c2c1 [P-2459, Cyclopentanesulfonic acid [3-(5-methyl-1H-pyrrolo[2,3-b]pyridine-3-carbonyl)-phenyl]-amide]
≤ 10 µM: Kit | MAP4K4 | Kdr

O=C(O)CCc1cccc(-c2cnc3[nH]cc(C(=O)c4cccc(NS(=O)(=O)C5CCCC5)c4)c3c2)c1 [P-2466, 3-{3-[3-(3-Cyclopentanesulfonylamino-benzoyl)-1H-pyrrolo[2,3-b]pyridin-5-yl]-phenyl}-propionic acid]
≤ 10 µM: Src | Kit | MAP4K4 | Kdr | B-Raf V600E
